For orientation: Km means the concentration of substrate that gives half-maximal velocity.

One series deals with EhAGCK2. The series can be described thus: ADP-Glo kinase assay with peptide substrates / ATP, EhAGCK2 WT. The following applies: for ATP Vmax / Km: mean ± SE, n = 6. In kind it is biochemical, Entamoeba histolytica. How it is done: (§1) The phosphorylation activity of kinases was measured using the ADP-Glo kinase assay kit according to the manufacturer’s protocol with few modifications (Promega, Madison, WI, Catalogue number V6930). Assays were performed in a Corning 384-well low-volume white round bottom polystyrene NBS microplate with a total volume of 32 μl in the ratio of 1:1:2, corresponding to the kinase reaction, ADP-Glo reagent, and detection reagent, respectively. The kinase reaction was performed in an 8 μl volume containing 4 μl of purified protein kinases, 2 μl of peptide substrate, and 2 μl of ATP (Promega, Madison, WI). The working concentration of all the kinase reaction components was prepared in the standard kinase assay buffer (40 mM Tris-Cl pH 7.5, 20 mM MgCl2, 2 mM DTT). Along with other controls, only buffer-negative controls without protein kinase, substrate, and ATP were included in the kinase assay. Kinase assay reactions in each well were started immediately by adding ATP. The reactions were allowed to continue for 1 h at 30°C in the incubator chamber without shaking. The kinase assay was quenched by adding 8 μl of ADP-Glo reagent in each well before adding ADP-Glo reagent. The reaction plate was incubated for 5 min at room temperature. Termination reactions were allowed to proceed for 40 min at room temperature. ADP-Glo reagent, in addition to quenching the reaction, scavenges the unconsumed ATP from the reaction. In the final step of the ADP-Glo kinase assay, 16 μl of kinase detection reagent was added to each well and incubated for 40 min to simultaneously convert ADP to ATP and allow the newly synthesised ATP to be measured using a luciferase/luciferin reaction. The luminescent signal generated was measured using a SpectraMax i3x Multi-Mode Microplate Reader (Molecular Devices), and it was proportional to the ADP concentration produced and correlated with the kinase activity.
(§2) Standard curves were constructed by plotting the saturating relative light units (RLU) for each sample against the concentration of the peptide substrate or ATP in the reaction, following the previously reported method. The slope of the standard curve was determined and used to convert the reaction rate velocities. Velocities were expressed in μM/min by calculating the rate of reaction (DY/DX) for each reaction, where DY represented the difference between the luminescence measurements at the beginning and end of the reaction, and DX denoted the duration of the reaction (total time of reaction: 60 min). The converted velocities were plotted against the substrate concentration, and the data were fitted to the Michaelis-Menten equation to determine Km and Vmax.
(§3) The kinase assay data presented here are the mean ± standard error (SE) of n≥3 of three independent experiments. The Km and Vmax were determined from a direct, nonlinear fit of [V] versus [S] plots using the Michaelis-Menten equation: V=Vmax[S]/Km+[S] using the GraphPad Prism 9.0 software package (GraphPad Software Inc., CA, USA). Additionally, the Microscale Thermophoresis (MST) experiments were conducted using the Monolith NT.11.5 instrument, with triplicate runs. Statistical comparisons were made using Student’s t-test. Differences in mean values were considered significant at *p-value≤0.05, **p-value≤0.01, ***p-value≤0.001, ****p-value≤0.0001.

The next series has as its system EhAGCK1. The series can be described thus: ADP-Glo kinase assay with peptide substrates / ATP, EhAGCK1 WT. In kind it is biochemical, Entamoeba histolytica. To be noted: for phosphorylation by EhAGCK1 WT (words): 1 hr. Here is the method: as §1, §2, §3
A general note: In ADP-Glo the light output rises with the ADP produced.

The test system of another series is autophosphorylation. As to the kind of experiment: ATP biotinylation kinase assay (autophosphorylation, SA-HRPO western blot). It counts as biochemical, Entamoeba histolytica. To be noted: 4 μM kinase (EhPDK1 2 μM), 20 μM biotin-labelled ATP, 40 mM Tris-Cl pH 7.8, 10 mM MgCl2, 2 mM DTT, 30°C, 1 h. How it is done: ATP biotinylation assays were performed in the presence of 4 μM of EhAGCK1 (WT, T275D, and KDD1) and EhAGCK2 (WT, T274D, and KDD2) along with 2 μM of wild-type EhPDK1 in the presence of activation buffer 40 mM Tris-Cl pH 7.8, 10 mM MgCl2, and 2 mM DTT and incubated at 30°C for 1 h. The reaction was triggered by adding 20 μM biotin-labelled ATP (Catalogue NU-970-BIO, Jena Bioscience). 20 μl of the reaction was collected at the indicated time point and quenched by the addition of 4x SDS-loading dye. After gel electrophoresis, phosphorylated proteins were visualized by immunoblotting using HRPO-conjugated streptavidin (Invitrogen).
ATP biotinylated protein samples were separated by SDS-PAGE and then electro-transferred to PVDF membrane (Pall life sciences). The membrane was blocked overnight by 5% BSA (G-Biosciences) in TBS-T (TBS with 0.1% Tween 20) and stained with Ponceau S. This blocking process was done overnight at 4°C. The membrane was then incubated with 1:1000 dilution of HRPO-conjugated streptavidin (Invitrogen) at room temperature. Following antibody incubation, the blots were carefully cleaned with TBS-T. Band detection was carried out with a Millipore ECL kit.
For orientation: A western blot detects proteins with antibodies after separation by electrophoresis.

The subject of the next series is HsGSK3 peptide. The series can be described thus: ADP-Glo kinase activity of kinase variants with human GSK3 peptide in MgCl2 and MnCl2 buffers. To be noted: for kinase activity with HsGSK3 peptide in Mg2+ / without Mn2+ (words): kinase 0-80 μM. In kind it is biochemical. How it is done: as §1, §3
The mark [1] stands for this setting: S3 Table, ADP-Glo, Michaelis-Menten fit at various substrate concentrations, 20 μM kinase, 250 μM ATP, read-out: Peptide Km in the presence of EhAGCK2.
[2] abbreviates: S3 Table, ADP-Glo, Michaelis-Menten fit at various substrate concentrations, 20 μM kinase, 250 μM ATP, mean ± SE, n = 6, read-out: Peptide Km in the presence of EhAGCK1.

“And” between values parts separate entries of the source, which are not always exact repeats. Equal values may be shown once. “Also recorded” adds a separate entry of the source. Read-outs that look alike come from different tables or passages of the source.

Consider `Nc1ncnc2c1ncn2[C@@H]1O[C@H](COP(=O)(O)OP(=O)(O)OP(=O)(O)O)[C@@H](O)[C@H]1O` [ATP, reference compound], for which the “ATP Vmax” value came out at 444.4 ± 18.5 µM/min with EhAGCK2 (EhAGCK2 WT 20 μM, 50 μM EhCoactosin peptide substrate, ATP 0-1000 μM); 271.4 ± 30.5 µM/min in the series with EhAGCK2 (EhAGCK2 WT 20 μM, 50 μM HsGSK3 peptide substrate, ATP 0-1000 μM); 260.7 ± 9.4 µM/min with EhAGCK1 (EhAGCK1 WT 20 μM, 50 μM HsGSK3 peptide substrate, ATP 0-1000 μM, mean ± SE, n = 6). The Km in the series on EhAGCK2 (EhAGCK2 WT 20 μM, 50 μM EhCoactosin peptide substrate, ATP 0-1000 μM, read-out: ATP Km) was 92.1 ± 16 µM; in the series with EhAGCK2 (EhAGCK2 WT 20 μM, 50 μM HsGSK3 peptide substrate, ATP 0-1000 μM, read-out: ATP Km) it was 292 µM and 291 µM; in the series with EhAGCK1 (EhAGCK1 WT 20 μM, 50 μM EhRhoGEF peptide substrate, ATP 0-1000 μM, mean ± SE, n = 6, read-out: ATP Km), 125 ± 16 µM; in the series on EhAGCK1 (EhAGCK1 WT 20 μM, 50 μM HsGSK3 peptide substrate, ATP 0-1000 μM, mean ± SE, n = 6, read-out: ATP Km) it was 242 ± 22.2 µM.

Regarding “ELDSDEEQKELER [Filamin-A interacting protein]”, the Michaelis constant (Km) in the series with EhAGCK2 (setting [1]) was 0.147 µM; in the series with EhAGCK1 (ADP-Glo luminescence, 20 μM EhAGCK1 WT, 250 μM ATP, peptide 0-200 μM, 30°C, 60 min, standard buffer 40 mM Tris-Cl pH 7.5, 20 mM MgCl2, 2 mM DTT, Michaelis-Menten fit, mean ± SE, n = 6, read-out: Km (peptide substrate)), 3.28 ± 1.19 µM; in the series on EhAGCK1 (setting [2]) it was 3.28 ± 1.19 µM. The “phosphorylation by EhAGCK1 WT (words)” value with EhAGCK1 (20 μM EhAGCK1 WT, 250 μM ATP) was “recognized as substrates by EhAGCK1 WT”; in the series with EhAGCK1 (20 μM EhAGCK1 WT, 250 μM ATP, listed as Filamin-A-interacting protein) it was “specifically phosphorylated”.

With “KSPTIDEIK [Hypothetical protein, peptide 133-141 of E. histolytica Hypothetical protein (EHI_025430)]”, the results for the Km with EhAGCK2 (setting [1]) and with EhAGCK1 (setting [2]) were 0.197 ± 0.08 µM and 2.56 ± 0.99 µM, respectively. Moreover, the “phosphorylation by EhAGCK1 WT (words)” value with EhAGCK1 (20 μM EhAGCK1 WT, 250 μM ATP) is “notable phosphorylation by EhAGCK1”.

On to “KTITPVVEDPCER [HEAT repeat domain-containing protein, peptide 661-673 of E. histolytica HEAT repeat domain-containing protein (EHI_050150)]”, for which the figures for the Km in the series with EhAGCK2 (setting [1]) and in the series with EhAGCK1 (setting [2]) were 0.262 ± 0.2 µM and 3.62 ± 1.34 µM, respectively. Also, the “phosphorylation by EhAGCK1 WT (words)” value in the series on EhAGCK1 (20 μM EhAGCK1 WT, 250 μM ATP) is “notable phosphorylation by EhAGCK1”.

As to “MAGIQLADEVTSVYNDF KLSHKYRYIV [Actophorin, peptide 1-27 of E. histolytica Actophorin (EHI_197480)]”, the figures for the Km in the series on EhAGCK2 (setting [1]) and with EhAGCK1 (setting [2]) were 0.258 ± 0.09 µM and 2.83 ± 1.69 µM, respectively.

Turning to “RRESVDYTNNK [Unconventional Myosin IB, peptide 754-764 of E. histolytica Unconventional myosin IB (EHI_110810)]”, in the series on EhAGCK2 (20 μM EhAGCK2 WT, 250 μM ATP, 1 hr), the “phosphorylation by EhAGCK2 WT” value was “recognised as substrates by EhAGCK2 WT; also recorded: accepted as substrates by EhAGCK2 WT”. Moreover, the Km in the series on EhAGCK2 (ADP-Glo luminescence, 20 μM EhAGCK2 WT, 250 μM ATP, peptide 0-200 μM, 30°C, 60 min, standard buffer 40 mM Tris-Cl pH 7.5, 20 mM MgCl2, 2 mM DTT, Michaelis-Menten fit, read-out: Km (peptide substrate)) was 1.34 ± 0.57 µM; in the series on EhAGCK2 (setting [1]), 1.34 ± 0.57 µM; in the series with EhAGCK1 (setting [2]) it was 3.63 ± 2.58 µM.

Regarding “SALDNGTYSPLLSPTR [RhoGEF-1, peptide 236-251 of E. histolytica RhoGEF-1 (EHI_159500)]”, the Km in the series on EhAGCK2 (setting [1]) turned out to be 0.271 ± 0.17 µM; in the series on EhAGCK1 (setting [2]), 4.42 ± 2.75 µM.

B1: KDD2: kinase-dead domain EhAGCK2 (K147A and D242A) (protein)
chain: MSVKTGWGIKEGGSWKTWKRRMFKLSEGKIEYFKDEGMTKKMGDIELSKVTHVLAVDQYKKRKNLIRIITPSRTYHISVNEESDRDSWVEAIRGMIGDNKEKKTQEEKEENKISMEDFDIITLLGKGAFGKVMLVKYKKEGKIYAMATVEKAQIIDSNEVEHILSEKVVLSQINNPFLVNMHYSFQTPTHLVFILDYCAGGELFSYLQKHPAGLPEVDVKFYAAQIVLALEHMHSTGIIYRAIKPENILFEKDGYLRMTDFGLAKSTKKGTTNTFCGTPEYLAPEVVEGLDYNEYIDWWGLGILIYEMLFTQSPFLAETMEELYENILQREPKYPSTKPITEECMNFINSLLIKEPSKRLTDPDQIKTHPWFNGFNFDDLYKKKLTPPYVPKIQSQTDTSNFDDEITQEEVDLKTGVEVVADNRFFTDFTYVQK
modifications: left off: His tag, end not stated, kept
Regarding B1, the “autophosphorylation activity (words)” value in the series with autophosphorylation is “remain inactive”.

B2: EhAGCK1 WT: recombinant full-length wild-type His-tagged AGC family kinase 1 of E. histolytica (protein)
chain: MEEKTQGWLMKEGGSWKSWKKRYFVLDNDTLYYYKEQDKKTLMGTMNLSLATHITAVDNYHKKYENIIRICTPSRTFHLSAANEEERLAWLTSIICHSEKTNICKPRISSVPVTQKDFDVKCLLGKGAYGKVFLVEMISTHEIFAMKTIEKKQIIEYEEIEHTMSERRILSKLHHPFLVNLYYSFQTPTHLFYIIDYCPGGEFYYYLQKNGKVSEEDAKFYAAQILLAIEHLHSSNIVYRDIKPENILIGADGYLRLTDFGLSKENVTKENTTSTFCGTPEYLAPEVVVGKDYSEPVDWWGFGILIYEMIHGHAPFTSEDIQQLFQKIIHDPVSFPSASYPSADCKECIVMLLEKDPEKRLTDPNRIKSHCWFKGFDWEGLFQKKLSPPFVPVLKDKTDTSNFNEDIINETAKIDEGEVVDSKDYFNDFTYCK
modifications: left off: His tag, end not stated, kept
notes: recombinant full-length wild-type His-tagged AGC family kinase 1 of E. histolytica
Take B2: the “kinase activity with HsGSK3 peptide in Mg2+ / without Mn2+ (words)” value in the series on HsGSK3 peptide (50 μM HsGSK3 peptide, 250 μM ATP) is reported as “did not utilize the HsGSK3 peptide as a substrate”; in the series on HsGSK3 peptide (50 μM HsGSK3 peptide, 250 μM ATP, listed as EhAGCK1), “could not accept HsGSK3 peptide as substrate”. Further, the “ion preference for kinase activity” value with HsGSK3 peptide (MgCl2 versus MnCl2 buffer, HsGSK3 peptide) is recorded as “only active in the presence of MnCl2 buffer; also recorded: maximum kinase activity in the presence of Mn^2+”. Moreover, the “increase in kinase activity with HsGSK3 peptide in presence of Mn2+” value with HsGSK3 peptide (Mn2+ present, 50 μM HsGSK3 peptide, 250 μM ATP) was 16 fold. Also, in the series with HsGSK3 peptide (S1 Table, kinase activity in MgCl2 and MnCl2 buffers, 50 μM HsGSK3 peptide, 250 μM ATP, 60 min, 30°C), the “Fold change (MgCl2: MnCl2)” value is given as 15.67. Moreover, the “autophosphorylation activity (words)” value is “exhibited autophosphorylation activity” with autophosphorylation; “able to accept biotin-ATP as substrate and underwent autophosphorylation” with autophosphorylation (listed as EhAGCK1).

Values taken from paper PMC11642994, “AGC family kinase of Entamoeba histolytica: Decoding the members biochemically” (PLOS Pathogens, 2024).
